Here are results for 33 compounds from patent US20160362408A1 (Bayer Pharma Aktiengesellschaft, priority 2013, published 2016).

The target of this assay is T1, recombinant guanylate cyclase reporter cell line (Rattus norvegicus, UniProt P19686+P20595).
T1 construct: expressed in transfected cells
T1 sequence (P19686 1-690): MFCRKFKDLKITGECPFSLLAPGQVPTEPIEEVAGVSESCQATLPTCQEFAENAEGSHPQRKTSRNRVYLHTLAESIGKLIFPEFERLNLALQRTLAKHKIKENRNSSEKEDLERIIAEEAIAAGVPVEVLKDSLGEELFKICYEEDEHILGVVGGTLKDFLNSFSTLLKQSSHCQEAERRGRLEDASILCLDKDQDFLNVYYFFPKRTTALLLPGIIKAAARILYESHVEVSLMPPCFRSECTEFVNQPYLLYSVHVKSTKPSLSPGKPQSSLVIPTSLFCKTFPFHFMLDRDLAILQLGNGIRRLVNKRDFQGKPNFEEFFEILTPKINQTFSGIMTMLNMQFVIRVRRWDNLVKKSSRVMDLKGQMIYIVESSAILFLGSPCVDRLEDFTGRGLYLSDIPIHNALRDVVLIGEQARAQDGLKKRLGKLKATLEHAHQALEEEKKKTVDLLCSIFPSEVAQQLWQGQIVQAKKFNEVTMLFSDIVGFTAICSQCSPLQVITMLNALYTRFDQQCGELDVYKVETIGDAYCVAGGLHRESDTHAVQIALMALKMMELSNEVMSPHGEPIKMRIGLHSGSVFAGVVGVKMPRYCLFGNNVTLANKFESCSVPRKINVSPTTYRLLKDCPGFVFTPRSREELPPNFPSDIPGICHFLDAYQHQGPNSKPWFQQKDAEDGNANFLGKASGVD
T1 sequence (P20595 1-619): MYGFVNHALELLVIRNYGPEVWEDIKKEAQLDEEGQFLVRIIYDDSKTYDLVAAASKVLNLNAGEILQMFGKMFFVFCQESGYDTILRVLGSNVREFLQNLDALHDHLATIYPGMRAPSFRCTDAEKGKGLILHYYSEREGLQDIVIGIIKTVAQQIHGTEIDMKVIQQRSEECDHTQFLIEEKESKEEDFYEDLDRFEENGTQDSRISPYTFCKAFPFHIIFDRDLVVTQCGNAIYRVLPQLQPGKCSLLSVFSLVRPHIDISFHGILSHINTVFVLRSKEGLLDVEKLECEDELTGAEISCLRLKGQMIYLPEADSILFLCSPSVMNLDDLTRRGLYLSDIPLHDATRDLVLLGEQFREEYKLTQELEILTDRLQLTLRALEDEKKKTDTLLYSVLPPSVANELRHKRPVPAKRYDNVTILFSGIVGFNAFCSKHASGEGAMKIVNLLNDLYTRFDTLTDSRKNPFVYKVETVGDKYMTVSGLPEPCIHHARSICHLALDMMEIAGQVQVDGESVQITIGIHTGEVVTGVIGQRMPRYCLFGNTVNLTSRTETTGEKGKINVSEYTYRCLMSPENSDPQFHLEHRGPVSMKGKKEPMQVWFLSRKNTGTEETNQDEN
In words: Effect on a recombinant guanylate cyclase reporter cell line. The class given is cell-based. The following applies: MEC = minimum effective concentration; in some cases mean values for individual determinations. How it is done: B-2. Effect on a Recombinant Guanylate Cyclase Reporter Cell Line
The cellular action of the compounds of the invention is determined using a recombinant guanylate cyclase reporter cell line, as described in F. Wunder et al., Anal. Biochem. 339, 104-112 (2005).
Representative MEC values (MEC=minimum effective concentration) for the compounds of the invention are shown in the table below (in some cases as mean values for individual determinations): […]
With `Cc1cc(NC(=O)c2c(C)nc3c(OCc4c(F)cccc4F)cccn23)c2ccccc2n1` [Example 69], the MEC is 0.55 µM.
Regarding `Cc1cc(OCCC(C(F)(F)F)C(F)(F)F)c2nc(C)c(C(=O)Nc3c(C)nn(Cc4ccccc4F)c3C)n2c1` [Example 148], the MEC was 1.0 µM.
Regarding `CNC(=O)c1c(NC(=O)c2c(C)nc3c(OCc4c(F)cccc4F)cccn23)cnn1C` [Example 36, 8-[(2,6-difluorobenzyl)oxy]-2-methyl-N-[1-methyl-5-(methylcarbamoyl)-1H-pyrazol-4-yl]imidazo[1,2-a]pyridine-3-carboxamide], the MEC is 1.0 µM.
As for `Cc1n[nH]c(C(F)(F)F)c1NC(=O)c1c(C)nc2c(OCc3c(F)cccc3F)cc(Cl)cn12` [Example 40, 6-chloro-8-[(2,6-difluorobenzyl)oxy]-2-methyl-N-[3-methyl-5-(trifluoromethyl)-1H-pyrazol-4-yl]imidazo[1,2-a]pyridine-3-carboxamide], the MEC is 0.03 µM.
For `CCn1nc(C)c(NC(=O)c2c(C)nc3c(OCc4c(F)cccc4F)cccn23)c1C` [Example 38, 8-[(2,6-Difluorobenzyl)oxy]-N-(1-ethyl-3,5-dimethyl-1H-pyrazol-4-yl)-2-methylimidazo[1,2-a]pyridine-3-carboxamide], the MEC was determined as 1.0 µM.
Regarding `Cc1n[nH]cc1NC(=O)c1c(C)nc2c(OCc3c(F)cccc3F)cccn12` [Example 3], the MEC was determined as 0.3 µM.
`CCOc1cc(NC(=O)c2c(C)nc3c(OCc4c(F)cccc4F)cccn23)cc(C)n1` [Example 102]: the MEC amounted to 0.3 µM.
With `Cc1n[nH]c(C)c1NC(=O)c1c(C)nc2c(OCC3CCCCC3)cccn12` [Example 49, 8-(cyclohexylmethoxy)-N-(3,5-dimethyl-1H-pyrazol-4-yl)-2-methylimidazo[1,2-a]pyridine-3-carboxamide], the MEC was found to be 0.1 µM.
The same measure for `COCCn1cc(NC(=O)c2c(C)nc3c(OCc4c(F)cccc4F)cccn23)cn1` [Example 26, 8-[(2,6-difluorobenzyl)oxy]-N-[1-(2-methoxyethyl)-1H-pyrazol-4-yl]-2-methylimidazo[1,2-a]pyridine-3-carboxamide]: 1.0 µM.
Regarding `Cc1cc(OCc2c(F)cccc2F)c2nc(C)c(C(=O)Nc3cccc(NS(C)(=O)=O)c3)n2c1` [Example 153, 8-[(2,6-Difluorobenzyl)oxy]-2,6-dimethyl-N-{3-[(methylsulphonyl)amino]phenyl}imidazo[1,2-a]pyridine-3-carboxamide], the MEC amounted to 3.0 µM.
As to `CCn1ccc(NC(=O)c2c(C)nc3c(OCc4c(F)cccc4F)cccn23)n1` [Example 121, 8-[(2,6-difluorobenzyl)oxy]-N-(1-ethyl-1H-pyrazol-3-yl)-2-methylimidazo[1,2-a] pyridine-3-carboxamide], the MEC is 1.0 µM.
Take `Cc1nn(C)cc1NC(=O)c1c(C)nc2c(OCc3c(F)cccc3F)cccn12` [Example 4]: the MEC was found to be 0.3 µM.
The same measure for `Cc1nc2c(OCc3c(F)cccc3F)cccn2c1C(=O)Nc1ccnc2ccc(C(F)(F)F)cc12` [Example 79]: 0.1 µM.
The same measure for `COc1cccc(C)c1NC(=O)c1c(C)nc2c(OCc3c(F)cccc3F)cccn12` [Example 15]: 0.3 µM; for `Cc1nc2c(OCc3c(F)cccc3F)cccn2c1C(=O)Nc1cnn2ccccc12` [Example 1, 8-[(2,6-Difluorobenzyl)oxy]-2-methyl-N-(pyrazolo[1,5-a]pyridin-3-yl)imidazo[1,2-a]pyridine-3-carboxamide]: 0.1 µM; for `Cc1nc2c(OCc3c(F)cccc3F)cc(Cl)cn2c1C(=O)Nc1ccnc2ccc(F)cc12` [Example 92]: 0.1 µM.
As to `Cc1nc2c(OCc3c(F)cccc3F)cccn2c1C(=O)Nc1cccc2ncccc12` [Example 68], the MEC came to 0.3 µM.
The same measure for `Cc1nc2c(OCc3c(F)cccc3F)cccn2c1C(=O)Nc1cccc2cc(Cl)ccc12` [Example 61]: 0.3 µM; for `Cc1nc2c(OCc3c(F)cccc3F)cccn2c1C(=O)Nc1c(C(F)(F)F)n[nH]c1C` [Example 76, 8-[(2,6-Difluorobenzyl)oxy]-2-methyl-N-[5-methyl-3-(trifluoromethyl)-1H-pyrazol-4-yl]imidazo[1,2-a]pyridine-3-carboxamide]: 0.1 µM; for `Cc1n[nH]c(C)c1NC(=O)c1c(C)nc2c(OCc3c(F)cccc3F)cccn12` [Example 29, 8-[(2,6-difluorobenzyl)oxy]-N-(3,5-dimethyl-1H-pyrazol-4-yl)-2-methylimidazo[1,2-a]pyridine-3-carboxamide]: 0.53 µM.
With `Cc1nc2c(OCc3c(F)cccc3F)cccn2c1C(=O)Nc1cn(C)nc1CO` [Example 81], the MEC was found to be 1.0 µM.
In the case of `Cc1nc2c(OCc3c(F)cccc3F)cccn2c1C(=O)Nc1cnn(CCN(C)C)c1` [Example 134, 8-[(2,6-difluorobenzyl)oxy]-N-{1-[2-(dimethylamino)ethyl]-1H-pyrazol-4-yl}-2-methylimidazol[1,2-a] pyridine-3-carboxamide] it was 3.0 µM; in that of `Cc1cc(OCc2c(F)cccc2F)c2nc(C)c(C(=O)Nc3cnn(CCO)c3)n2c1` [Example 86], 0.3 µM; in that of `Cc1nc2c(OCc3c(F)cccc3F)cccn2c1C(=O)Nc1cn[nH]c1` [Example 31, 8-[(2,6-difluorobenzyl)oxy]-2-methyl-N-(1H-pyrazol-4-yl)imidazo[1,2-a]pyridine-3-carboxamide], 1.0 µM.
For the compound `Cc1cc(OCCC(C(F)(F)F)C(F)(F)F)c2nc(C)c(C(=O)Nc3c(C)n[nH]c3C(F)(F)F)n2c1` [Example 149, 2,6-dimethyl-N-[3-methyl-5-(trifluoromethyl)-1H-pyrazol-4-yl]-8-[4,4,4-trifluoro-3-(trifluoromethyl)butoxy]imidazo[1,2-a]pyridine-3-carboxamide], the MEC is 2.0 µM.
Take `Cc1nc2c(OCc3c(F)cccc3F)cccn2c1C(=O)Nc1cnn(C)c1` [Example 119, 8-[(2,6-difluorobenzyl)oxy]-2-methyl-N-(1-methyl-1H-pyrazol-4-yl)imidazo[1,2-a]pyridine-3-carboxamide]: the MEC is 1.0 µM.
Turning to `Cc1ccc2c(NC(=O)c3c(C)nc4c(OCc5c(F)cccc5F)cccn34)c(C)ccc2n1` [Example 63], the MEC amounted to 0.3 µM.
Take `Cc1ccncc1NC(=O)c1c(C)nc2c(OCc3c(F)cccc3F)cccn12` [Example 93]: the MEC came out at 1.0 µM.
As to `Cc1nc2c(OCc3c(F)cccc3F)cccn2c1C(=O)Nc1cnn(CCN2CCN(C)CC2)c1` [Example 133, 8-[(2,6-difluorobenzyl)oxy]-2-methyl-N-{1-[2-(4-methylpiperazin-1-yl)ethyl]-1H-pyrazol-4-yl)imidazo [1,2-a]pyridine-3-carboxamide], the MEC was 10 µM.
With `Cc1nc2c(OCc3c(F)cccc3F)cccn2c1C(=O)Nc1cnn(CCS(C)(=O)=O)c1` [Example 135, 8-[(2,6-Difluorobenzyl)oxy]-2-methyl-N-{1-[2-(methylsulphonyl)ethyl]-1H-pyrazol-4-yl}imidazo[1,2-a]pyridine-3-carboxamide], the MEC is 3.0 µM.
On to `Cc1nc2c(OCc3c(F)cccc3F)cc(Cl)cn2c1C(=O)Nc1ccccc1CN` [Example 104, N-[2-(Aminomethyl)phenyl]-6-chloro-8-[(2,6-difluorobenzyl)oxy]-2-methylimidazo[1,2-a]pyridine-3-carboxamide], for which the MEC was 3.0 µM.
Turning to `Cc1nc2c(OCc3c(F)cccc3F)cccn2c1C(=O)Nc1c[nH]c2ccccc12` [Example 2], the MEC was determined as 0.1 µM.
As for `COc1cccc(NC(=O)c2c(C)nc3c(OCc4c(F)cccc4F)cccn23)c1` [Example 13], the MEC amounted to 0.3 µM.
